Source: PMC12691695, “Functional insight into cyclin-dependent kinase (CDK)7 via chemical inhibition of the priority fungal pathogen Cryptococcus neoformans” (mBio, 2025)

Biological target: T1, CnCDK7; pulled-down CAK complex (CnCAK: CDK7-CycH-Mat1) (Cryptococcus neoformans, UniProt J9W126)
T1 construct: gene CNAG_06445; native trimeric CAK complex pulled down on mNeonGreen-Trap beads from C. neoformans; CDK7 tagged with mNeonGreen, CycH with V5, Mat1 with 6xHis; with Cyclin H
T1 sequence (J9W126 1-358): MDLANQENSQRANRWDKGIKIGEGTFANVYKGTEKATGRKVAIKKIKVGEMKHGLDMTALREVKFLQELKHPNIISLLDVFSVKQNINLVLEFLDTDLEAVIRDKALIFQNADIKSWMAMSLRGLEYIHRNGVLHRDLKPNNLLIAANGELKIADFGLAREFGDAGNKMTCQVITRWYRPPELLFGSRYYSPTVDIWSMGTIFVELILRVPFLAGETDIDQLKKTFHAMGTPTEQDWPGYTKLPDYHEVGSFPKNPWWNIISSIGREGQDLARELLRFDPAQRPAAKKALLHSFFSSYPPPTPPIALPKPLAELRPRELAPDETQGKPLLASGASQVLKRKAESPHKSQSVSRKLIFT
T1 sequence (J9VUP1 1-447 partner): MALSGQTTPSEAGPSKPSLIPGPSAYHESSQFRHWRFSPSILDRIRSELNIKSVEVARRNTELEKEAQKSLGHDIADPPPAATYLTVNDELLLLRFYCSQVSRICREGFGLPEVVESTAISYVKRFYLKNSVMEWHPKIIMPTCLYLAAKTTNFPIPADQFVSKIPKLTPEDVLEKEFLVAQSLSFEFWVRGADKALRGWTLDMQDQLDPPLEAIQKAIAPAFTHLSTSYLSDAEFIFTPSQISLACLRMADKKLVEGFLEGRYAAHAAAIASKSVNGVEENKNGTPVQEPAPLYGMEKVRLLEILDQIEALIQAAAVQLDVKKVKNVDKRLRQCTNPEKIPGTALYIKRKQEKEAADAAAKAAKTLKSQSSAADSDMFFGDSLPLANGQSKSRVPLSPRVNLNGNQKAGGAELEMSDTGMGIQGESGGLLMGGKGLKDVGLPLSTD
T1 sequence (J9VS06 1-372 partner): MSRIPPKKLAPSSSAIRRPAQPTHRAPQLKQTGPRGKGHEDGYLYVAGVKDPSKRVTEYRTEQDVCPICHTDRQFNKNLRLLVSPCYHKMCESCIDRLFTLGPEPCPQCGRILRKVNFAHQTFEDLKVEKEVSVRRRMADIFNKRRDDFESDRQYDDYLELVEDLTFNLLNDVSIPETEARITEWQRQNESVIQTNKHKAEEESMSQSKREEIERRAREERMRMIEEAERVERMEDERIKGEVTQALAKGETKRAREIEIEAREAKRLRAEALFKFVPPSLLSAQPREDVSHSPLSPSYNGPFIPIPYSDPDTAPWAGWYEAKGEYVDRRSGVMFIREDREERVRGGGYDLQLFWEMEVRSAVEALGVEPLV
Assay: Kinase-Glo ATP consumption, pulled-down CAK, […] min
Type: biochemical
Conditions: co-substrate 250 µM CDK7/9tide; 20 mM MgCl2, pH 7.5, room temperature; bead-bound complex

**Q.** With `Nc1ncnc2c1ncn2[C@@H]1O[C@H](COP(=O)(O)OP(=O)(O)OP(=O)(O)O)[C@@H](O)[C@H]1O` [ATP] as the compound, how does the “Kinase-Glo ATP consumption, pulled-down CAK, 300 min” value read?
**A.** Its value is “ATP consumption (due to the phosphorylation of the peptide substrate by CDK7)”.
